Data from US10874667B2, “Pharmaceutical salt of antitumor heterocyclic imidazole compound” (SHANGHAI HUILUN LIFE SCIENCE & TECHNOLOGY CO., LTD., priority 2016, dated 2020).

Assay: Solubility test in water (HPLC)
Assay type: physicochemical
Conditions: stirred at constant temperature for 30 min
Description: The solubility of the salt of the compound of Formula (I) of the present invention was determined by the following method:
a) About 200 mg of the salt of the compound of Formula (I) was accurately weighed, dissolved in 200 ml of an aqueous solution, stirred at a constant temperature for 30 min, and allowed to stand. The supernatant was centrifuged, and then the supernatant of the centrifugate was taken and used as a test solution.
b) About 200 mg of the compound of Formula (I) was accurately weighed, dissolved in aqueous methanol, and quantitatively diluted into a solution containing 0.02 mg of free base per 1 ml.
The solution was used as a reference solution.
The table below compares the solubilities of the compound of Formula (I) and its various forms of salts.
With `O=C(c1cc(Cc2n[nH]c(=O)c3ccccc23)ccc1F)N1CCN(c2ccc3[nH]cnc3n2)CC1.O=S(=O)(O)c1ccccc1` [4-(3-(4-(1H-imidazo[4,5-b]pyridine-5-yl)piperazine-1-carbonyl)-4-fluorobenzyl)phthalazine-1(dihydro)-one benzenesulfonate] the Solubility in water was 230 µg/mL.
With `O=C(c1cc(Cc2n[nH]c(=O)c3ccccc23)ccc1F)N1CCN(c2ccc3[nH]cnc3n2)CC1.O=S(=O)(O)CCO` [4-(3-(4-(1H-imidazo[4,5-b]pyridine-5-yl)piperazine-1-carbonyl)-4-fluorobenzyl)phthalazine-1(dihydro)-one hydroxyethanesulfonate] the Solubility in water was 310 µg/mL.
For `Cl.O=C(c1cc(Cc2n[nH]c(=O)c3ccccc23)ccc1F)N1CCN(c2ccc3[nH]cnc3n2)CC1` [4-(3-(4-(1H-imidazo[4,5-b]pyridine-5-yl)piperazine-1-carbonyl)-4-fluorobenzyl)phthalazine-1(dihydro)-one hydrochloride], the Solubility in water was 340 µg/mL.
For `Cc1ccc(S(=O)(=O)O)cc1.O=C(c1cc(Cc2n[nH]c(=O)c3ccccc23)ccc1F)N1CCN(c2ccc3[nH]cnc3n2)CC1` [4-(3-(4-(1H-imidazo[4,5-b]pyridine-5-yl)piperazine-1-carbonyl)-4-fluorobenzyl)phthalazine-1(dihydro)-one p-toluenesulfonate], the Solubility in water was 40 µg/mL.
Work on `CS(=O)(=O)O.O=C(c1cc(Cc2n[nH]c(=O)c3ccccc23)ccc1F)N1CCN(c2ccc3[nH]cnc3n2)CC1` [4-(3-(4-(1H-imidazo[4,5-b]pyridine-5-yl)piperazine-1-carbonyl)-4-fluorobenzyl)phthalazine-1(dihydro)-onemethanesulfonate] yielded a Solubility in water of 300 µg/mL.

Same assay, conditions: thermodynamic from solid, stirred at constant temperature for 30 min
Work on `O=C(c1cc(Cc2n[nH]c(=O)c3ccccc23)ccc1F)N1CCN(c2ccc3[nH]cnc3n2)CC1` [Formula I, 4-(3-(4-(1H-imidazo[4,5-b]pyridine-5-yl)piperazine-1-carbonyl)-4-fluorobenzyl)phthalazine-1(dihydro)-one] yielded a solubility at 30 min of 1 µg/mL.
